Test results published in US9726662B2, “Assay for drug discovery based on in vitro differentiated cells” (AXIOGENESIS AG, priority 2004, dated 2017).
Non-standard residues stand in square brackets, D forms with d. Residues, ends and D or L forms follow the SMILES beside them. No end group written: not given here.

Assays:
[1] = tested on: ES cell-derived cardiomyocytes; test: Interference of compounds with ET-1- or PE-induced hypertrophy of ES cell-derived cardiomyocytes (ANF/BNP RT-PCR); assay type: cell-based, mouse; details: for ANF induction (up-regulation) upon ET-1 stimulation, in words / BNP induction (up-regulation) upon ET-1 stimulation, in words: 100 nM ET-1, 24 h; for ANF induction (up-regulation) upon ET-1 stimulation, in words / BNP induction (up-regulation) upon ET-1 stimulation, in words / ANF induction (up-regulation) upon PE stimulation, in words / BNP induction (up-regulation) upon PE stimulation, in words: compound concentration as in Table 1, summary of Table 1; for ANF induction (up-regulation) upon PE stimulation, in words / BNP induction (up-regulation) upon PE stimulation, in words: 100 μM PE;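 as to all read-outs here: mRNA levels of ANF and BNP quantified from RT-PCR products by densitometry of bands after agarose gel separation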
Method: PCR products were separated by agarose gel electrophoresis and band intensity was analysed using the BioDocAnalyze system (Biometra).
ES cell-derived cardiomyocytes were stimulated with either 100 nM endothelin-1 (ET-1) or 100 μM phenylephrine (PE) in the presence of the compounds indicated. After 24 hours expression of ANF and BNP mRNA was analyzed by RT-PCR.

[2] = tested on: ES cell-derived cardiomyocytes; test: Induction of ANF and BNP expression by hypertrophic stimuli (RT-PCR, FIG. 3); assay type: cell-based, mouse; details: suspension culture; 24 h serum starvation, then 24 h stimulation; endothelin-1 100 nM, phenylephrine 200 μM, Angiotensin II 100 nM
Method: Cardiomyocytes differentiated from ES cells were serum-starved for 24 h and subsequently stimulated by endothelin-1 (100 nM; lanes 1, 6, 11), phenylephrine (200 μM; lanes 2, 7, […]) or Angiotensin II (100 nM; lanes 3, 8, 13). Non-stimulated controls were cultured in serum-free medium (lanes 4, 9, 14) or serum-supplemented medium (lanes 5, 10, 15). Subsequently, RNA was extracted and cDNA was synthesized using random hexamer priming. ANF, BNP, and gapdh cDNAs were amplified and PCR products were analyzed by agarose gel electrophoresis. M, size marker. Amplification parameters were as follows. cDNAs were amplified for 32 (ANF and BNP) or 26 (gapdh) PCR cycles consisting each of 1 min at 94° C., 1 min at 56° C., and 1 min at 72° C. The following primers were used: ANF-5′, 5′-[…]-3′ (SEQ ID NO: 14); ANF-3′, 5′-[…]-3′ (SEQ ID NO: 15); BNP-5′, 5′-[…]-3′ (SEQ ID NO: 18); BNP-3′, 5′-[…]-3′ (SEQ ID NO: 19); gapdh-5′, 5′-[…]-3′ (SEQ ID NO: 16); gapdh-3′ 5′-[…]-3′ (SEQ ID NO: 17). Expected PCR product sizes were 468 bp (ANF), 242 bp (BNP), and 349 bp (gapdh).
In a further experiment, the possible induction of an early embryonic gene program upon stimulation by endohelin-1, angiotensin II, or phenylephrine was analysed. To this end, puromycin resistant ES cell-derived cardiomyocytes were obtained as described above; however, after the final […] in puromycin containing medium cells were not transferred to a feeder layer but were kept in suspension culture. Following serum-starvation for 24 h by cultivation in Medium 199, cells were stimulated for 24 h by addition of endothelin-1, phenyleprine, or angiotensin II (Sigma). RNA was extracted and reverse transcribed using standard methods.
Expression of ANF and brain natriuretic peptide (BNP) was analysed by PCR amplification of the respective cDNAs.

[3] = tested on: ES cell-derived cardiomyocytes; test: Size of ES cell-derived cardiomyocytes upon hypertrophic stimulation (microscopy, FIG. 1); assay type: cell-based; details: 24 h serum starvation, then 24 h stimulation; endothelin-1 100 nM or phenylephrine 200 μM; on inactivated mouse embryonic fibroblasts
Method: (§1) Hypertrophic cardiomyocytes in that cell culture system are characterized by increased size, increased protein synthesis, increase in sarcomeric assembly and reexpression of a fetal gene program, e.g. enhanced expression of the ANF (atrial natriuretic factor) gene. In order to test if embryonic stem (ES) cell-derived cardiomyocytes display similar features upon stimulation, the following experiments were performed. Green fluorescent cardiomyocytes were generated in accordance with the teachings of in international applications WO99/01552 and WO02/051987 in the following way. ES cells (line D3, ATCC, CRL 1934) that were transfected with a bi-cistronic vector containing the genes for green fluorescent protein (GFP) and puromycin-resistance under the transcriptional control of the […] heavy chain promoter (see WO02/051987), were induced to form aggregates (embryonic bodies, EBs) in the absence of LIF either according to the method in WO99/01552 and WO2/051987, respectively, or as described in European patent application no. 03015401.7. EBs were cultured for 9 days in IMDM (Invitrogen) supplemented with 20% FCS (Invitrogen, batch controlled) at 37° C., 5% CO2 and 95% humidity on 10 cm bacteriological dishes (Greiner). Subsequently, puromycin (Sigma, 2.5 μg/ml) was added to the cell culture medium and cells were cultured for further 10 days. […]

[4] = tested on: ES cell-derived cardiomyocytes; test: Sarcomeric organization, immunostaining for sarcomeric alpha-actinin (FIG. 2); assay type: cell-based, mouse; details: 24 h serum starvation, then 24 h stimulation, endothelin-1 100 nM or phenylephrine 200 μM
Method: as §1

[5] = compound 10 μM, stimulus 100 nM ET-1, 24 h, relative to ET-1-stimulated sample without test compound (=100%)
[6] = compound 10 μM, stimulus 100 μM PE, 24 h, relative to PE-stimulated sample without test compound (=100%)
[7] = compound 1 μM, stimulus 100 nM ET-1, 24 h, relative to ET-1-stimulated sample without test compound (=100%)
[8] = compound 1 μM, stimulus 100 μM PE, 24 h, relative to PE-stimulated sample without test compound (=100%)
[9] = compound 100 nM, stimulus 100 nM ET-1, 24 h, relative to ET-1-stimulated sample without test compound (=100%)
[10] = compound 100 nM, stimulus 100 μM PE, 24 h, relative to PE-stimulated sample without test compound (=100%)

Row | Molecule | ANF induction (up-regulation) upon ET-1 stimulation, in words [1] | BNP induction (up-regulation) upon ET-1 stimulation, in words [1] | ANF induction (up-regulation) upon PE stimulation, in words ([1]; 24 h) | ANF expression compared to control [2] | BNP expression compared to control [2] | ANF expression [1, 7] | BNP expression [1, 7] | ANF expression [1, 8] | BNP expression [1, 8] | other results
1 | COc1cc2nc(N3CCN(C(=O)c4ccco4)CC3)nc(N)c2cc1OC [Prazosin] | no inhibition | no inhibition | inhibition |  |  |  |  |  |  | BNP induction (up-regulation) upon PE stimulation, in words ([1]; 24 h): inhibition; ANF expression [1, 5]: 100% (no effect); BNP expression [1, 5]: 100% (no effect); ANF expression [1, 6]: 40%; BNP expression [1, 6]: 40%
2 | Angiotensin II [hypertrophic agonist (Sigma) used as stimulus] |  |  |  | modest increase | modest increase |  |  |  |  | 
3 | COc1ccc(CCN(C)CCCC(C#N)(c2ccc(OC)c(OC)c2)C(C)C)cc1OC (stereo not drawn) [Verapamil] |  |  |  |  |  | 100% (no effect) | 30% | 40% | 20% | 
4 | CNC[C@H](O)c1cccc(O)c1 [phenylephrine] |  |  |  | increased | increased |  |  |  |  | cardiomyocyte size upon stimulation [3]: increase in size; sarcomeric organization upon stimulation [4]: increase in sarcomeric organization
5 | endothelin-1 (CSCSSLMDKECVYFCHLDIIW; ends and bridges not checked; cysteine pairing not given here; UniProt P05305 53-73, looked up) [hypertrophic agonist (Sigma) used as stimulus] |  |  |  | increased | increased |  |  |  |  | cardiomyocyte size upon stimulation [3]: increase in size; sarcomeric organization upon stimulation [4]: increase in sarcomeric organization
6 | CCCC[C@@H](NC(=O)[C@@H](Cc1cn(C(=O)OC)c2ccccc12)NC(=O)[C@H](CC(C)(C)C)NC(=O)N1[C@H](C)CCC[C@@H]1C)C(=O)O [BQ788] | inhibit | inhibit | not |  |  | 70% | 70% | 100% (no effect) | 100% (no effect) | 
7 | CC(C)C[C@@H]1NC(=O)[C@@H](C(C)C)NC(=O)[C@@H]2CCCN2C(=O)[C@@H](CC(=O)O)NC(=O)[C@@H](Cc2c[nH]c3ccccc23)NC1=O [BQ123] (cyclo(L[dW][dD]P[dV])) | inhibit | inhibit | not |  |  | 50% | 60% | 100% (no effect) | 100% (no effect) | 
8 | CN[C@@H]1C[C@H]2O[C@@](C)([C@@H]1OC)n1c3ccccc3c3c4c(c5c6ccccc6n2c5c31)C(=O)NC4 [Staurosporine] | inhibited | inhibited | inhibited |  |  |  |  |  |  | BNP induction (up-regulation) upon PE stimulation, in words ([1]; 24 h): inhibited; ANF expression [1, 9]: 30%; BNP expression [1, 9]: 30%; ANF expression [1, 10]: 30%; BNP expression [1, 10]: 30%
9 | COC(=O)C1=C(C)NC(C)=C(C(=O)OC)C1c1ccccc1[N+](=O)[O-] [Nifedipine] |  |  |  |  |  |  |  |  |  | ANF expression [1, 9]: 100% (no effect); BNP expression [1, 9]: 10%; ANF expression [1, 10]: 20%; BNP expression [1, 10]: 20%
